# Laboratory results taken from patent US7192607B2, “Formulations for the prevention or the treatment of diseases affecting mucosae or skin, or for pregnancy prevention, and an applicator for the delivery of topical formulations into mucosal cavities” (Infectio Recherche Inc, priority 2002, dated 2007).
# “And” between values parts separate entries of the source, which are not always exact repeats. Equal entries are not always repeated. Where two headings read alike, the source gives them in different places.
# Assays:
# [1] = tested on: HSV-2 (22); assay: Infectivity of HSV-2 (22) pretreated with SLS on Vero cells (PFU); type: cell-based, Herpes simplex virus type-2
# Method: (§1) The effect of pretreating different strains of herpes viruses with SLS or DS on their viral infectivities to susceptible cells has been evaluated. In brief, cells were seeded in 24 well-plates (Costar, Montreal, QC, Canada). Prior to infection, the virus was either suspended in culture medium or phosphate buffered saline (PBS), or incubated with different concentrations of SLS in PBS for 1 h at 37° C. At confluency, cells were incubated with viral suspensions by centrifuging the plates (750× g for 45 min at 20° C.) to allow virus adsorption. Virus was removed and cell sheets were then overlaid with 0.5 ml of 0.6% agarose Seaplaque (Marine Colloids, Rockland, Md.) prepared in appropriate culture medium. The plates were incubated for 2 days at 37° C. Cells were then fixed with 10% formaldehyde in PBS for 20 min, washed with deionized water and stained with 0.05% methylene blue. Viral infectivity was evaluated via the determination of Plaque Forming Units (PFU).
# [2] = tested on: HSV-2 (333); assay: Infectivity of HSV-2 (333) pretreated with SLS on Vero cells (PFU); type: cell-based, Herpes simplex virus type-2
# Method: as §1
# [3] = tested on: HSV-2; details: Howett et al., 1999; cited from earlier work
# [4] = tested on: HIV-1; details: Howett et al., 1999; cited from earlier work
# [5] = tested on: HSV-1 (strain F); assay: Electron microscopy of Vero cells infected with HSV-1 (strain F) pretreated with SLS; type: cell-based, Herpes simplex virus type-1
# Method: The appearance of HSV-1 (strain F) pretreated with varying SLS concentrations (50, 75 and 100 μM) for 1 h at 37° C. has been evaluated in Vero cells using electron microscopy. In brief, cells (80–90% confluent) were infected with the virus (approximately 70 PFU/ml in 14 ml) for 48 h at 37° C. in a 5% CO2 atmosphere. Cells were scrapped off from the dishes and resuspended in culture medium. Cells were centrifuged (515× g for 10 min at 4° C.) and the supernatant was decanted and cells were resuspended in approximately 500 μl medium. Cells were transferred in an eppendorf tube and centrifuged at (10,000× g for 5 min at 4° C.). The pellet was resuspended in approximately 200 μl of 20% bovine serum albumin (BSA). Few drops of 25% glutaraldehyde were added to the mixture and samples were immediately put in an ice bath to allow BSA polymerization. The pellet was then cut in 1 mm^3 samples which were then fixed in 2% glutaraldehyde in PBS for 1 h, 1% OsO4 in PBS for 1 h and then with 0.1% tannic acid in PBS for 30 min. Samples were rinsed 3 times in PBS for 5 min between each step. Samples were stained with 2% uranyl acetate in 10% ethanol for 30 min. Samples were dehydrated and embedded in Epon following routine procedures. Sections (approximately 75 nm thickness) were mounted on copper grid (200 mesh). […]
# [6] = tested on: Vero cells; assay: Viability of Vero cells exposed to SLS or DS (MTS test); details: Vero cells exposed 1 h at 37° C. to concentrations as in FIG. 1 and Table 1; data not shown
# [7] = tested on: HSV-2 (strain 22); assay: Murine intranasal infection model, HSV-2 pretreated with SLS; type: in vivo, Balb/c mice
# Method: The effect of pretreating HSV-2 (strain 22) with SLS on viral infectivity has also been evaluated in a murine intranasal infection model. In brief, female Balb/c mice (Charles River Breeding Laboratories Inc., St-Constant, QC, Canada) 4 weeks-old were used throughout this study. Prior to the infection, HSV-2 (strain 22) was incubated for 1 h at 37° C. with PBS or with different concentrations of SLS (6.25, 25 or 100 μM) to reach a final viral inoculum of 2,000 PFU/20 μl. Mice were slightly anesthetized using Aerrane® (Isoflurane, USP; Janssen, North York, ON, Canada) and viral suspension (20 μl total volume) was applied into the external left nare of mice. Mice were then returned to their cages and survival was evaluated daily.
# [8] = tested on: HSV-1 (strain F); assay: Efficacy of SLS or DS added in overlay after infection against HSV-1 (strain F) in Vero cells (PFU); type: cell-based, Herpes simplex virus type-1; details: cells infected 2 h, compound in overlay for 2 days, FIG. 2
# Method: In brief, cells were infected with the virus for 2 h at 37° C. Afterwards, supernatant was removed and cells were overlaid with 0.5 ml of EMEM +2% FBS containing 0.6% agarose Seaplaque and SLS or DS at the desired concentration. Plates were then incubated for 2 days at 37° C. in a 5% CO2 atmosphere. Cells were fixed with 10% formaldehyde in PBS for 20 min, washed with deionized water and stained with 0.05% methylene blue. Viral infectivity was evaluated following the determination of PFU.
# [9] = tested on: HSV-1 (strain F); assay: Infectivity of HSV-1 (strain F) to Vero cells after treatment with SLS or DS (plaque forming units); type: cell-based, Herpes simplex virus type-1; details: for IC50: Human alphaherpesvirus 1, Vero, FIG. 1, read-out: concentration giving a loss of 50% of the viral infectivity
# Method: as §1
# HSV-1 (strain F) infectivity was reduced to 21% when viral particles were pretreated with 25 μM SLS. The infectivities of all HSV-2 strains were between 50 to 70% following preincubation with 25 μM SLS. A complete loss of the infectivity of all strains tested were obtained following pretreatment of the viruses with 50 μM SLS.
# When SLS was immediately added to Vero cells following their infection, the loss of viral infectivity was less dramatic compared to that obtained for virus pretreated for 1 h at 37° C. with the same SLS concentrations. […] Similarly, pretreatment of the HSV-2 (strain 333) with SLS also influenced the infectivity of this strain (data not shown). On the other hand, DS reduces the infectivity of the virus independent of whether the virus was pretreated with DS.
# [10] = virus pretreated with 6.25 μM SLS for 1 hour at 37° C.
# [11] = virus pretreated with 12.5 μM SLS for 1 hour at 37° C.
# [12] = virus pretreated with 25 μM SLS for 1 hour at 37° C.
# [13] = virus pretreated with 50 μM SLS for 1 hour at 37° C.
# [14] = viral suspension pretreated with 100 μM SLS
compound,measurement,setting,value
"CCCCCCCCCCCCOS(=O)(=O)[O-].[Na+] [SLS, Sodium lauryl sulfate]",PFU (% of control) for HSV-2 (22),[1]; [10],128.0 ± 18.5 % of control
same,PFU (% of control) for HSV-2 (22),[1]; [11],103.4 ± 14.9 % of control
same,PFU (% of control) for HSV-2 (22),[1]; [12],63.8 ± 11.9 % of control
same,PFU (% of control) for HSV-2 (22),[1]; [13],0 % of control
same,PFU (% of control) for HSV-2 (333),[2]; [10],102.9 ± 23.5 % of control
same,PFU (% of control) for HSV-2 (333),[2]; [11],115.4 ± 17.0 % of control
same,PFU (% of control) for HSV-2 (333),[2]; [12],72.9 ± 9.1 % of control
same,PFU (% of control) for HSV-2 (333),[2]; [13],0 % of control
same,inactivation of HSV-2,[3],potent inactivator
same,inactivation of HIV-1,[4],potent inactivator
same,cells with empty capsids in the nuclei (electron microscopy),[5]; virus pretreated with 100 μM SLS for 1 h at 37° C.,only a few cells with empty capsids in the nuclei could be detected
same,appearance of viral particles in infected Vero cells (electron microscopy),"[5]; virus pretreated with 50, 75 and 100 μM SLS for 1 h at 37° C.",No mature nucleocapsid could be observed
same,"cytotoxicity (viability, MTS test)",[6],No signs of cytotoxicity
same,mice that survived the infection,[7]; viral inoculum pretreated with 6.25 μM SLS,67%
same,mice that survived the infection,[7]; viral inoculum pretreated with 25 μM SLS,67%
same,mice that survived the infection,[7]; [14],all
same,signs of illness,[7]; [14],did not demonstrate any sign of illness
same,concentration with complete efficacy against viral replication,[8],100 µM
same,inhibition of viral infectivity,[9]; 100 μM SLS without pretreatment,not complete
same,IC50,[9]; virus not pretreated (added without pretreatment),75 µM
same,IC50,[9]; virus pretreated for 1 h at 37° C.,20 µM
same,inhibition of viral infectivity,[9]; preincubation of virus with 50 μM SLS,complete inhibition
same,PFU (% of control) for HSV-1 (F),[9]; [10],101.1 ± 7.0 % of control
same,PFU (% of control) for HSV-1 (F),[9]; [11],79.2 ± 36.4 % of control
same,PFU (% of control) for HSV-1 (F),"[9]; virus pretreated with 25 μM SLS for 1 hour at 37° C., sulfate",21 % of control and 21.2 ± 18.0 % of control
same,PFU (% of control) for HSV-1 (F),[9]; [13],0 % of control
